According to patent US11230526B1, “Cylcoalkenyl derivatives useful as agonists of the GPR120 and/or GPR40 receptors” (Janssen Pharmaceutica NV, priority 2018, dated 2022):

Key:
[1] = molecular target: T1, Human GPR120 short form (Homo sapiens, UniProt Q5NUL3); assay: Human GPR120 calcium flux assay, Procedure Calcium B (4200 cells/well); type: cell-based
T1 construct: expressed in transfected cells
T1 sequence (Q5NUL3 1-361): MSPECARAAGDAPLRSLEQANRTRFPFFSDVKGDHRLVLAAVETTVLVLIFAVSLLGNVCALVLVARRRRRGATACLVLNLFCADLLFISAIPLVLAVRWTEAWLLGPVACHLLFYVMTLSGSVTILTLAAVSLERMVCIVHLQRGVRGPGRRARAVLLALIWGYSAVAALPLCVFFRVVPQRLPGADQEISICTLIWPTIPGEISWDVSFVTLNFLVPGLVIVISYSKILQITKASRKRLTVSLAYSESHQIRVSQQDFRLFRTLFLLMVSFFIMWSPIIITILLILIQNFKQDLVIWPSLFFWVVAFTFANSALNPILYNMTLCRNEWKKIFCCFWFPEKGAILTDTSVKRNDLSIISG
Procedure, shortened: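 HEK293 cells stably expressing human GPR120 (NM_001195755.1), 4200 cells/well, starved 1 h and loaded with Fluo-4 NW plus probenecid. Ligand-evoked calcium flux read on FLIPR for 300 s after a 10 s baseline. RFU = Fmax−Fmin; EC50 from four-parameter concentration-response fit.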

[2] = molecular target: T2, human GPR40 (Homo sapiens, UniProt O14842); assay: GPR40 calcium flux assay, human GPR40; type: cell-based; details: HEK293 cells stably expressing GPR40; table does not say human or rat
T2 construct: expressed in transfected cells
Procedure, shortened: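 Cells preincubated 1 h at 37° C. in HBSS, 20 mM HEPES, 0.1% BSA, then Fluo 8 calcium dye 30 min at 37° C. and 15 min at room temperature.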

T2 sequence (O14842 whole entry): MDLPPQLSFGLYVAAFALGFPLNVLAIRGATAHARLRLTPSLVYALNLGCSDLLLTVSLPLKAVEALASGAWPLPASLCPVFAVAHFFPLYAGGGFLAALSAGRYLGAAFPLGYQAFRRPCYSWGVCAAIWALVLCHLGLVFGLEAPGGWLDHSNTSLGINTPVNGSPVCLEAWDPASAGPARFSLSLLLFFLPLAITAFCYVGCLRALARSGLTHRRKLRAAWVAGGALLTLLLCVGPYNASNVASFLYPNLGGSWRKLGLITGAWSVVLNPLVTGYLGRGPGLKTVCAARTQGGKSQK

## O=C(O)CCc1ccc(OCC2=C(c3cccc(F)c3)CCC2)cc1Cl [Compound 297, 3-[2-chloro-4-[[2-(3-fluorophenyl)cyclopenten-1-yl]methoxy]phenyl]Propanoic Acid]
[1]
  EC50: 422 nM
[2]
  EC50: 588 nM

## O=C(O)CCc1ccc(OCC2=C(C3CCCC3)CCC2)cc1C(F)(F)C(F)(F)F [Compound 446, 3-[4-[(2-cyclopentylcyclopenten-1-yl)methoxy]-2-(1,1,2,2,2-pentafluoroethyl)phenyl]Propanoic Acid]
[1]
  EC50: 828 nM
[2]
  EC50: 458 nM

## Cc1cc(OCC2=C(C3=CCCCC3)CCC2)c(F)cc1CCC(=O)O [Compound 352, 3-[4-[[2-(cyclohexen-1-yl)cyclopenten-1-yl]methoxy]-5-fluoro-2-methyl-phenyl]Propanoic Acid]
[1]
  EC50: > 5000 nM
[2]
  EC50: > 10000 nM

## CC(C)C1=C(COc2ccc(CCC(=O)O)c(C(F)(F)F)c2)CCC1 [Compound 377, 3-[4-[(2-isopropylcyclopenten-1-yl)methoxy]-2-(trifluoromethyl)phenyl]Propanoic Acid]
[1]
  EC50: 493 nM
[2]
  EC50: 42 nM

## O=C(O)CCc1ccc(OCC2=C(Cc3ccccc3)CCC2)cc1C(F)(F)F [Compound 319, 3-[4-[(2-benzylcyclopenten-1-yl)methoxy]-2-(trifluoromethyl)phenyl]Propanoic Acid]
[1]
  EC50: 623 nM
[2]
  EC50: 55 nM

## CCC1CCCC(COc2ccc(CCC(=O)O)c(C)c2C)=C1c1ccc(Cl)cc1 (stereo not drawn) [Compound 478, 3-[4-[[2-(4-chlorophenyl)-3-ethyl-cyclohexen-1-yl]methoxy]-2,3-dimethyl-phenyl]Propanoic Acid]
[1]
  EC50: > 5000 nM
[2]
  EC50: > 5000 nM

## CCc1ccc(C2=C(COc3ccc(CCC(=O)O)c(C(F)(F)F)c3)CCC2)cc1 [Compound 294, 3-[4-[[2-(4-ethylphenyl)cyclopenten-1-yl]methoxy]-2-(trifluoromethyl)phenyl]Propanoic Acid]
[1]
  EC50: > 5000 nM
[2]
  EC50: 3510 nM

## CC(C)c1cc(OCC2=C(C3CCCC3)CCC2)ccc1CCC(=O)O [Compound 410, 3-[4-[(2-cyclopentylcyclopenten-1-yl)methoxy]-2-isopropyl-phenyl]Propanoic Acid]
[1]
  EC50: 996 nM
[2]
  EC50: 128 nM

## O=C(O)CCc1ccc(OCC2=C(C3CCC(F)(F)CC3)CCC2)cc1Cl [Compound 411, 3-[2-chloro-4-[[2-(4,4-difluorocyclohexyl)cyclopenten-1-yl]methoxy]phenyl]Propanoic Acid]
[1]
  EC50: > 5000 nM
[2]
  EC50: 133 nM

## COc1ccc(C2=C(COc3ccc(CCC(=O)O)c(C(F)(F)F)c3)CCC2)cc1 [Compound 301, 3-[4-[[2-(4-methoxyphenyl)cyclopenten-1-yl]methoxy]-2-(trifluoromethyl)phenyl]Propanoic Acid]
[1]
  EC50: 1530 nM
[2]
  EC50: 448 nM

## O=C(O)CCc1ccc(OCC2=C(C3CCCC3)CCC(F)(F)CC2)cc1F [Compound 610, 3-[4-[(2-cyclopentyl-5,5-difluoro-cyclohepten-1-yl)methoxy]-2-fluoro-phenyl]Propanoic Acid]
[1]
  EC50: 302 nM
[2]
  EC50: 267 nM

## O=C(O)CCc1cc(Cl)c(OCC2=C(c3ccc(F)cc3)CCC2)c(Cl)c1 [Compound 235, 3-[3,5-dichloro-4-[[2-(4-fluorophenyl)cyclopenten-1-yl]methoxy]phenyl]Propanoic Acid]
[1]
  EC50: 668 nM
[2]
  EC50: > 5000 nM

## O=C(O)CCc1ccc(OCC2=C(Cc3ccc(F)cc3)CCC2)cc1Cl [Compound 349, 3-[2-chloro-4-[[2-[(4-fluorophenyl)methyl]cyclopenten-1-yl]methoxy]phenyl]Propanoic Acid]
[1]
  EC50: 1900 nM
[2]
  EC50: 60 nM

## O=C(O)CCc1ccc(OCC2=C(C3CCC3)CCCC2)cc1Cl [Compound 600, 3-[2-chloro-4-[(2-cyclobutylcyclohexen-1-yl)methoxy]phenyl]Propanoic Acid]
[1]
  EC50: 1200 nM
[2]
  EC50: 24 nM

## Cc1cc(OCC2=C(Cc3ccccc3)CC(F)(F)C2)c(F)cc1CCC(=O)O [Compound 357, 3-[4-[(2-benzyl-4,4-difluoro-cyclopenten-1-yl)methoxy]-5-fluoro-2-methyl-phenyl]Propanoic Acid]
[1]
  EC50: 664 nM
[2]
  EC50: 653 nM

## O=C(O)CCc1ccc(OCC2=C(C3CCCC3)CC(F)(F)C2)cc1F [Compound 457, 3-[4-[(2-cyclopentyl-4,4-difluoro-cyclopenten-1-yl)methoxy]-2-fluoro-phenyl]Propanoic Acid]
[1]
  EC50: 126 nM
[2]
  EC50: 46 nM

## COC1CCC(c2ccc(C)cc2)=C(COc2ccc(CCC(=O)O)cc2)C1 (stereo not drawn) [Compound 574, 3-[4-[[5-methoxy-2-(p-tolyl)cyclohexen-1-yl]methoxy]phenyl]Propanoic Acid]
[1]
  EC50: 2130 nM
[2]
  EC50: 4410 nM

## O=C(O)CCc1ccc(OCC2=C(c3ccccc3)CC(F)(F)C2)cc1Cl [Compound 242, 3-[2-chloro-4-[(4,4-difluoro-2-phenyl-cyclopenten-1-yl)methoxy]phenyl]Propanoic Acid]
[1]
  EC50: 146 nM
[2]
  EC50: 836 nM

## COc1ccc(C2=C(COc3ccc(CCC(=O)O)c(Cl)c3)CCC2)cc1 [Compound 288, 3-[2-chloro-4-[[2-(4-methoxyphenyl)cyclopenten-1-yl]methoxy]phenyl]Propanoic Acid]
[1]
  EC50: 847 nM
[2]
  EC50: 1080 nM

## O=C(O)CCc1ccc(OCC2=C(C3CCCC3)CC(F)(F)C2)cc1Cl [Compound 409, 3-[2-chloro-4-[(2-cyclopentyl-4,4-difluoro-cyclopenten-1-yl)methoxy]phenyl]Propanoic Acid]
[1]
  EC50: 86 nM
[2]
  EC50: 25 nM

## Cc1cc(OCC2=C(c3ccc(F)cc3)CCC2)c(F)cc1CCC(=O)O [Compound 304, 3-[5-fluoro-4-[[2-(4-fluorophenyl)cyclopenten-1-yl]methoxy]-2-methyl-phenyl]Propanoic Acid]
[1]
  EC50: 502 nM
[2]
  EC50: 1110 nM

## CCCCC1=C(COc2ccc(CCC(=O)O)c(C(F)(F)F)c2)CCCC1 [Compound 598, 3-[4-[(2-butylcyclohexen-1-yl)methoxy]-2-(trifluoromethyl)phenyl]Propanoic Acid]
[1]
  EC50: 399 nM
[2]
  EC50: 177 nM

## Cc1cc(OCC2=C(c3ccc(Cl)cc3)CCC2)c(F)cc1CCC(=O)O [Compound 289, 3-[4-[[2-(4-chlorophenyl)cyclopenten-1-yl]methoxy]-5-fluoro-2-methyl-phenyl]Propanoic Acid]
[1]
  EC50: 219 nM
[2]
  EC50: 1010 nM

## O=C(O)CCc1ccc(OCC2=C(Cc3ccccc3)CCCC2)cc1C(F)(F)F [Compound 584, 3-[4-[(2-benzylcyclohexen-1-yl)methoxy]-2-(trifluoromethyl)phenyl]Propanoic Acid]
[1]
  EC50: 756 nM
[2]
  EC50: 91 nM

## Cc1cc(OCC2=C(c3ccccc3C)CCC2)c(F)cc1CCC(=O)O [Compound 262, 3-[5-fluoro-2-methyl-4-[[2-(o-tolyl)cyclopenten-1-yl]methoxy]phenyl]Propanoic Acid]
[1]
  EC50: > 5000 nM
[2]
  EC50: 1290 nM

## Cc1ccc(C2=C(COc3ccc(CCC(=O)O)c(C(F)(F)F)c3)CCC2)c(F)c1 [Compound 283, 3-[4-[[2-(2-fluoro-4-methyl-phenyl)cyclopenten-1-yl]methoxy]-2-(trifluoromethyl)phenyl]Propanoic Acid]
[1]
  EC50: 236 nM
[2]
  EC50: 355 nM

## [2H]C([2H])([2H])c1ccc(C2=C(COc3ccc(CCC(=O)O)c(C(F)(F)F)c3)CCC2)cc1 [Compound 268-D, 3-[4-[[2-[4-(trideuteriomethyl)phenyl]cyclopenten-1-yl]methoxy]-2-(trifluoromethyl)phenyl]Propanoic Acid]
[1]
  EC50: 685 nM
[2]
  EC50: 992 nM

## CCc1ccc(C2=C(COc3ccc(CCC(=O)O)c(Cl)c3)CCC2)cc1 [Compound 293, 3-[2-chloro-4-[[2-(4-ethylphenyl)cyclopenten-1-yl]methoxy]phenyl]Propanoic Acid]
[1]
  EC50: 2180 nM
[2]
  EC50: 4240 nM

## CCCC1=C(COc2ccc(CCC(=O)O)cc2)CCCC1 [Compound 589, 3-[4-[(2-propylcyclohexen-1-yl)methoxy]phenyl]Propanoic Acid]
[1]
  EC50: 3150 nM
[2]
  EC50: 2390 nM

## O=C(O)CCc1ccc(OCC2=C(C3CCCC3)CCC2)cc1 [Compound 395, 3-[4-[(2-cyclopentylcyclopenten-1-yl)methoxy]phenyl]Propanoic Acid]
[1]
  EC50: 255 nM
[2]
  EC50: 188 nM

## Cc1c(CCC(=O)O)ccc(OCC2=C(C3CCCC3)CCC(F)(F)CC2)c1C [Compound 618, 3-[4-[(2-cyclopentyl-5,5-difluoro-cyclohepten-1-yl)methoxy]-2,3-dimethyl-phenyl]Propanoic Acid]
[1]
  EC50: 188 nM
[2]
  EC50: > 10000 nM

## [2H]C([2H])([2H])c1ccc(C2=C(COc3cc(C)c(CCC(=O)O)cc3F)CCC2)cc1 [Compound 303-D, 3-[5-fluoro-2-methyl-4-[[2-[4-(trideuteriomethyl)phenyl]cyclopenten-1-yl]methoxy]phenyl]Propanoic Acid]
[1]
  EC50: 124 nM
[2]
  EC50: 2370 nM

## CC1CCC(COc2ccc(CCC(=O)O)c(C(F)(F)F)c2)=C1c1ccccc1 (stereo not drawn) [Compound 306, 3-[4-[(3-methyl-2-phenyl-cyclopenten-1-yl)methoxy]-2-(trifluoromethyl)phenyl]Propanoic Acid]
[1]
  EC50: 1120 nM
[2]
  EC50: 347 nM
